# In PubChem BioAssay AID1259407 (Chemical Carcinogenesis Research Information System (CCRIS), 2018):
# The source made the active and inactive calls. How the calls were made is not given here.
# Test system: CCRIS mutagenicity, Ames/micronucleus/aberration tests
# Assay: CCRIS mutagenicity studies
# [1] = Test System: AMES SALMONELLA TYPHIMURIUM, Strain/Indicator: TA98, Metabolic Activation: NONE, Method: PREINCUBATION
# [2] = Test System: AMES SALMONELLA TYPHIMURIUM, Strain/Indicator: TA100, Metabolic Activation: NONE, Method: PREINCUBATION
compound,measurement,setting,value
CC/C(=C(\c1ccccc1)c1ccc(OCCN(C)C)cc1)c1ccccc1,mutagenic call,"End Point: IN VITRO CHROMOSOMAL ABERRATIONS, Test System: SYRIAN HAMSTER EMBRYO (SHE) CELLS, Metabolic Activation: NONE",inactive; negative
same,mutagenic call,"End Point: IN VITRO MICRONUCLEUS, Test System: AHH-1 CELLS, Metabolic Activation: NONE",inactive; negative
same,mutagenic call,"End Point: IN VITRO MICRONUCLEUS, Test System: MCL-5 CELLS, Metabolic Activation: NONE",active; positive
same,mutagenic call,"Test System: AMES SALMONELLA TYPHIMURIUM, Strain/Indicator: TA98, Metabolic Activation: HAMSTER, LIVER, S-9, AROCLOR 1254, Method: STANDARD PLATE",inactive; negative
same,mutagenic call,"Test System: AMES SALMONELLA TYPHIMURIUM, Strain/Indicator: TA98, Metabolic Activation: NONE, Method: STANDARD PLATE",inactive; negative
same,mutagenic call,"Test System: AMES SALMONELLA TYPHIMURIUM, Strain/Indicator: TA98, Metabolic Activation: RAT, LIVER, S-9, AROCLOR 1254, Method: STANDARD PLATE",inactive; negative
same,mutagenic call,"Test System: AMES SALMONELLA TYPHIMURIUM, Strain/Indicator: TA100, Metabolic Activation: HAMSTER, LIVER, S-9, AROCLOR 1254, Method: STANDARD PLATE",inactive; negative
same,mutagenic call,"Test System: AMES SALMONELLA TYPHIMURIUM, Strain/Indicator: TA100, Metabolic Activation: NONE, Method: STANDARD PLATE",inactive; negative
same,mutagenic call,"Test System: AMES SALMONELLA TYPHIMURIUM, Strain/Indicator: TA100, Metabolic Activation: RAT, LIVER, S-9, AROCLOR 1254, Method: STANDARD PLATE",inactive; negative
same,mutagenic call,"Test System: AMES SALMONELLA TYPHIMURIUM, Strain/Indicator: TA1535, Metabolic Activation: HAMSTER, LIVER, S-9, AROCLOR 1254, Method: STANDARD PLATE",inactive; negative
same,mutagenic call,"Test System: AMES SALMONELLA TYPHIMURIUM, Strain/Indicator: TA1535, Metabolic Activation: NONE, Method: STANDARD PLATE",inactive; negative
same,mutagenic call,"Test System: AMES SALMONELLA TYPHIMURIUM, Strain/Indicator: TA1535, Metabolic Activation: RAT, LIVER, S-9, AROCLOR 1254, Method: STANDARD PLATE",inactive; negative
same,mutagenic call,"Test System: AMES SALMONELLA TYPHIMURIUM, Strain/Indicator: TA1537, Metabolic Activation: HAMSTER, LIVER, S-9, AROCLOR 1254, Method: STANDARD PLATE",inactive; negative
same,mutagenic call,"Test System: AMES SALMONELLA TYPHIMURIUM, Strain/Indicator: TA1537, Metabolic Activation: NONE, Method: STANDARD PLATE",inactive; negative
same,mutagenic call,"Test System: AMES SALMONELLA TYPHIMURIUM, Strain/Indicator: TA1537, Metabolic Activation: RAT, LIVER, S-9, AROCLOR 1254, Method: STANDARD PLATE",inactive; negative
same,mutagenic call,"Test System: AMES SALMONELLA TYPHIMURIUM, Strain/Indicator: TA1538, Metabolic Activation: HAMSTER, LIVER, S-9, AROCLOR 1254, Method: STANDARD PLATE",inactive; negative
same,mutagenic call,"Test System: AMES SALMONELLA TYPHIMURIUM, Strain/Indicator: TA1538, Metabolic Activation: NONE, Method: STANDARD PLATE",inactive; negative
same,mutagenic call,"Test System: AMES SALMONELLA TYPHIMURIUM, Strain/Indicator: TA1538, Metabolic Activation: RAT, LIVER, S-9, AROCLOR 1254, Method: STANDARD PLATE",inactive; negative
same,mutagenic call,"Test System: CHINESE HAMSTER V-79, Strain/Indicator: V-79 (HPRT)/6-THIOGUANINE, Metabolic Activation: NONE",inactive; negative
Cc1cnccn1,mutagenic call,[1],inactive; negative
same,mutagenic call,"Test System: AMES SALMONELLA TYPHIMURIUM, Strain/Indicator: TA98, Metabolic Activation: RAT, LIVER, S-9, AROCLOR 1254, Method: PREINCUBATION",inactive; negative
same,mutagenic call,[2],inactive; negative
same,mutagenic call,"Test System: AMES SALMONELLA TYPHIMURIUM, Strain/Indicator: TA100, Metabolic Activation: RAT, LIVER, S-9, AROCLOR 1254, Method: PREINCUBATION",inactive; negative
same,mutagenic call,"Test System: AMES SALMONELLA TYPHIMURIUM, Strain/Indicator: TA102, Metabolic Activation: NONE, Method: PREINCUBATION",inactive; negative
same,mutagenic call,"Test System: AMES SALMONELLA TYPHIMURIUM, Strain/Indicator: TA102, Metabolic Activation: RAT, LIVER, S-9, AROCLOR 1254, Method: PREINCUBATION",inactive; negative
OC[C@@H](O)CCl,mutagenic call,[1],inactive; negative
same,mutagenic call,"Test System: AMES SALMONELLA TYPHIMURIUM, Strain/Indicator: TA98, Metabolic Activation: RAT, LIVER, S-9, KANECHLOR 500, Method: PREINCUBATION",inactive; negative
same,mutagenic call,[2],active; positive
same,mutagenic call,"Test System: AMES SALMONELLA TYPHIMURIUM, Strain/Indicator: TA100, Metabolic Activation: RAT, LIVER, S-9, KANECHLOR 500, Method: PREINCUBATION",inactive; negative
same,mutagenic call,"Test System: AMES SALMONELLA TYPHIMURIUM, Strain/Indicator: TA100, Metabolic Activation: RAT, LIVER, S-9, PCB, Method: PREINCUBATION",active; positive
